Target: P. falciparum apicoplast DNA polymerase (Pf-apPOL) (Plasmodium falciparum, UniProt Q8ILY1)
Experiment: Fluorescence-based high-throughput DNA polymerase assay (molecular beacon), primary screen and dose-response;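 on % inhibition ApPOL 90': test concentration in µM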;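 on % inhibition Apol 40': compound concentration given in µM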;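 on % inhibition apPOL 180': test concentration in µM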
Assay type: biochemical
Conditions: for DNA Pol: 90 min, 10 µM
Method in brief: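 Single-point screening used 10 µM compound with 20 nM polymerase, 20 nM hairpin substrate and 6 µM dNTPs for 90 min at 25 °C. Confirmatory titrations (2.5–80 µM) followed fluorescence at three times, and IC50 was derived from a fit including a cooperativity term n.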

Chain of P. falciparum apicoplast DNA polymerase (Pf-apPOL) (Q8ILY1 entry or part of it): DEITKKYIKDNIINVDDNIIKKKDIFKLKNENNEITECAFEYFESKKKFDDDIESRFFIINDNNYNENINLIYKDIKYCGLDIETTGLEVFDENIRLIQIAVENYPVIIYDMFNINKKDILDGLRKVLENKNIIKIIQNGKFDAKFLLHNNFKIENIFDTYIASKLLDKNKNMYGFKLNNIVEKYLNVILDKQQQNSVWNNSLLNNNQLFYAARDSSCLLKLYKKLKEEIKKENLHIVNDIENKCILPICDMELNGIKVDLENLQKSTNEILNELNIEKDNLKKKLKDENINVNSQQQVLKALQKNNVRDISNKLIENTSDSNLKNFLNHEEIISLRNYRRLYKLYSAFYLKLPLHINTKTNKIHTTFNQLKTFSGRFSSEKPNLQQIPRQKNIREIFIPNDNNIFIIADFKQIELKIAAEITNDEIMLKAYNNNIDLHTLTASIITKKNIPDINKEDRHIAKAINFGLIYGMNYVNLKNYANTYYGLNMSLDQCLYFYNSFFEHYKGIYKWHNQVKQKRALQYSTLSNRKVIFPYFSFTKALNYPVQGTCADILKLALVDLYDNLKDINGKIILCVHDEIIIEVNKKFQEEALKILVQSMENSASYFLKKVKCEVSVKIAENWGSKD

## CC(C)(C)OC(=O)COc1ccc2cc(-c3ccccc3)c(=O)oc2c1 [Molecule 81, O=C(OC(C)(C)C)COc1ccc2c(c1)oc(=O)c(c2)c1ccccc1]
'DNA Pol' of the 186 hits list (primary screen value)
  DNA Pol: 44
DNA Pol (primary screen value)
  DNA Pol: 44
DRC-1, concentration 2.5
  % inhibition Apo pol 10': -2.0657%
  % inhibition Apol 90': 2.03%
  % inhibition apPOL 180': 5.717%
DRC-1, concentration 5
  % inhibition Apo pol 10': -5.666%
  % inhibition Apol 90': 3.443%
  % inhibition apPOL 180': 14.8656%
DRC-1, concentration 10
  % inhibition Apo pol 10': 3.988%
  % inhibition Apol 90': 16.0875%
  % inhibition apPOL 180': 30.2199%
DRC-1, concentration 20
  % inhibition Apo pol 10': 8.332%
  % inhibition Apol 90': 22.5271%
  % inhibition apPOL 180': 41.9896%
DRC-1, concentration 40
  % inhibition Apo pol 10': 16.7579%
  % inhibition Apol 90': 30.9519%
  % inhibition apPOL 180': 50.3603%
DRC-1, concentration 80
  % inhibition Apo pol 10': 23.4286%
  % inhibition Apol 90': 41.1721%
  % inhibition apPOL 180': 64.7026%
DRC-2, concentration 2.5
  % inhibition Apo pol 5': 8%
  % inhibition Apol 40': 5.4%
  % inhibition ApPOL 90': 3.57%
  % inhibition apPOL 180': -1.44%
DRC-2, concentration 5
  % inhibition Apo pol 5': 10%
  % inhibition Apol 40': -3%
  % inhibition ApPOL 90': -14%
  % inhibition apPOL 180': -93%
DRC-2, concentration 10
  % inhibition Apo pol 5': 23%
  % inhibition Apol 40': 19%
  % inhibition ApPOL 90': 13%
  % inhibition apPOL 180': 1.59%
DRC-2, concentration 20
  % inhibition Apo pol 5': 28%
  % inhibition Apol 40': 25%
  % inhibition ApPOL 90': 18%
  % inhibition apPOL 180': 2.69%
DRC-2, concentration 40
  % inhibition Apo pol 5': 36%
  % inhibition Apol 40': 33%
  % inhibition ApPOL 90': 27%
  % inhibition apPOL 180': 13%
DRC-2, concentration 80
  % inhibition Apo pol 5': 44%
  % inhibition Apol 40': 44%
  % inhibition ApPOL 90': 38%
  % inhibition apPOL 180': 23%

## Cc1ccc(NC(=O)Cn2ccc3c(=O)[nH]ccc32)cc1F [Molecule 48, O=C(Cn1ccc2c1cc[nH]c2=O)Nc1ccc(c(c1)F)C]
"DNA Pol" of the 186 hits list (screen value)
  DNA Pol: 27
DRC-1, concentration 2.5
  % inhibition Apo pol 10': 0.4313%
  % inhibition Apol 90': -2.985%
  % inhibition apPOL 180': -5.068%
DRC-1, concentration 5
  % inhibition Apo pol 10': 4.695%
  % inhibition Apol 90': -1.632%
  % inhibition apPOL 180': -4.79%
DRC-1, concentration 10
  % inhibition Apo pol 10': 32.4815%
  % inhibition Apol 90': 21.1063%
  % inhibition apPOL 180': 10.5149%
DRC-1, concentration 20
  % inhibition Apo pol 10': 59.9779%
  % inhibition Apol 90': 47.267%
  % inhibition apPOL 180': 31.5724%
DRC-1, concentration 40
  % inhibition Apo pol 10': 70.0783%
  % inhibition Apol 90': 60.3661%
  % inhibition apPOL 180': 45.3289%
DRC-1, concentration 80
  % inhibition Apo pol 10': 79.5186%
  % inhibition Apol 90': 79.6602%
  % inhibition apPOL 180': 73.7679%
DRC-2, concentration 2.5
  % inhibition Apo pol 5': -5.29%
  % inhibition Apol 40': -4.56%
  % inhibition ApPOL 90': -6.53%
  % inhibition apPOL 180': -10%
DRC-2, concentration 5
  % inhibition Apo pol 5': 3%
  % inhibition Apol 40': 4%
  % inhibition ApPOL 90': 2.25%
  % inhibition apPOL 180': -4%
DRC-2, concentration 10
  % inhibition Apo pol 5': 22%
  % inhibition Apol 40': 23%
  % inhibition ApPOL 90': 21%
  % inhibition apPOL 180': 7%
DRC-2, concentration 20
  % inhibition Apo pol 5': 44%
  % inhibition Apol 40': 57%
  % inhibition ApPOL 90': 56%
  % inhibition apPOL 180': 49%
DRC-2, concentration 40
  % inhibition Apo pol 5': 46%
  % inhibition Apol 40': 65%
  % inhibition ApPOL 90': 67%
  % inhibition apPOL 180': 65%
DRC-2, concentration 80
  % inhibition Apo pol 5': 38%
  % inhibition Apol 40': 62%
  % inhibition ApPOL 90': 67%
  % inhibition apPOL 180': 69%
Primary screen value, DNA Pol
  DNA Pol: 27
